Laboratory results reported in US20250171437A1 (Agios Pharmaceuticals,Inc., priority 2022, published 2025).

target: T1, human PAH with the R408W mutation (A375 R408W cells) (Homo sapiens, UniProt P00439, R408W); experiment: Cell Based Phenylalanine Flux Assay; details: A375 R408W cells; 24 hrs with compound, then 20 μM sepiapterin and 800 μM 13C9,15N-Phenylalanine for 4 hours; 13C-Tyrosine by LC-MS; average where tested multiple times
T1 construct: expressed in transfected cells
T1 sequence (P00439 1-452 R408W): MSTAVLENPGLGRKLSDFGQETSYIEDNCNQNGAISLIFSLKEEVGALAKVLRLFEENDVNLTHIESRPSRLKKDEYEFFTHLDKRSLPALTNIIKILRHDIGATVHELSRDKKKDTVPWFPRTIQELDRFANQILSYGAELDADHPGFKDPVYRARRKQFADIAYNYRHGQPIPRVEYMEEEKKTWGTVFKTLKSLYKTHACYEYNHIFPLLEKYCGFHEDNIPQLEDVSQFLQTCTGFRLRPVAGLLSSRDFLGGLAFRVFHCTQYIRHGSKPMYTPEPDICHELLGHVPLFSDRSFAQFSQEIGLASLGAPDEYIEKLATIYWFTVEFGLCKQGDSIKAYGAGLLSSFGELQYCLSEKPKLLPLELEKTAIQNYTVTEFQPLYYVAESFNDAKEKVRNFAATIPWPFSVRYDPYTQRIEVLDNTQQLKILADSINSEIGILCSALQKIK
In short: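 Stable R408W PAH A375 cells: 24 h compound pretreatment in duplicate, then 4 h with 800 μM isotope-labelled Phe and 20 μM sepiapterin. Labelled Tyr output by LC-MS; AC50 averaged where repeated.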

| SMILES | AC50 [nM] |
| --- | --- |
| Cc1cccc2nc([C@@H]3c4nc[nH]c4CCN3C(=O)c3ccnn3C)oc12 [Example 747, (S)-(1-methyl-1H-pyrazol-5-yl)(4-(7-methylbenzo[d]oxazol-2-yl)-6,7-dihydro-1H-imidazo[4,5-c]pyridin-5(4H)-yl)methanone] | ≤ 500 |
| Cn1cc(-c2ncc(C(=O)N3CCc4[nH]cnc4[C@H]3c3nc4cc(F)ccc4o3)s2)cn1 [Example 9, (S)-(4-(5-fluorobenzo[d]oxazol-2-yl)-6,7-dihydro-1H-imidazo[4,5-c]pyridin-5(4H)-yl)(2-(1-methyl-1H-pyrazol-4-yl)thiazol-5-yl)methanone] | ≤ 500 |
| CN(C)CCc1cn2ncc(C(=O)N3CCc4[nH]cnc4[C@H]3c3nc4cc(F)ccc4o3)c2cc1Cl [Example 79, (S)-(5-chloro-6-(2-(dimethylamino)ethyl)pyrazolo[1,5-a]pyridin-3-yl)(4-(5-fluorobenzo[d]oxazol-2-yl)-6,7-dihydro-1H-imidazo[4,5-c]pyridin-5(4H)-yl)methanone] | 500 to 1000 |
| Cn1cc(-c2nnc(C(=O)N3CCc4[nH]cnc4[C@@H]3c3nc4cccc(F)c4o3)o2)cn1 [Example 192, (R)-(4-(7-fluorobenzo[d]oxazol-2-yl)-6,7-dihydro-1H-imidazo[4,5-c]pyridin-5(4H)-yl)(5-(1-methyl-1H-pyrazol-4-yl)-1,3,4-oxadiazol-2-yl)methanone] | 1000 to 5000 |
| O=C(c1cnc(-c2ccccn2)o1)N1CCc2[nH]cnc2[C@H]1c1nc2ccc(Br)cc2o1 [Example 7, (S)-(4-(6-bromobenzo[d]oxazol-2-yl)-6,7-dihydro-1H-imidazo[4,5-c]pyridin-5(4H)-yl)(2-(pyridin-2-yl)oxazol-5-yl)methanone] | 500 to 1000 |
| O=C(c1cnn2cc(N3CCOCC3)ccc12)N1CCc2[nH]cnc2[C@@H]1c1nc2c(F)cccc2o1 [Example 503, (R)-(4-(4-fluorobenzo[d]oxazol-2-yl)-6,7-dihydro-1H-imidazo[4,5-c]pyridin-5(4H)-yl)(6-morpholinopyrazolo[1,5-a]pyridin-3-yl)methanone] | ≥ 5000 |
| O=C(c1cnn2cc(-c3ccccn3)ccc12)N1CCc2[nH]cnc2[C@H]1c1nc2cccc(F)c2o1 [Example 451, (S)-(4-(7-fluorobenzo[d]oxazol-2-yl)-6,7-dihydro-1H-imidazo[4,5-c]pyridin-5(4H)-yl)(6-(pyridin-2-yl)pyrazolo[1,5-a]pyridin-3-yl)methanone] | ≤ 500 |
| Cn1nc(C(F)(F)F)nc1C(=O)N1CCc2[nH]cnc2[C@H]1c1nc2ccccc2o1 [Example 683, (S)-(4-(benzo[d]oxazol-2-yl)-6,7-dihydro-1H-imidazo[4,5-c]pyridin-5(4H)-yl)(1-methyl-3-(trifluoromethyl)-1H-1,2,4-triazol-5-yl)methanone] | 1000 to 5000 |
| COCc1ccc2c(C(=O)N3CCc4[nH]cnc4[C@@H]3c3nc4cc(C)ccc4o3)cnn2c1 [Example 878, (R)-(6-(methoxymethyl)pyrazolo[1,5-a]pyridin-3-yl)(4-(5-methylbenzo[d]oxazol-2-yl)-6,7-dihydro-1H-imidazo[4,5-c]pyridin-5(4H)-yl)methanone] | ≥ 5000 |

More lines, now with the values ahead:

| AC50 [nM] | SMILES |
| --- | --- |
| 500 to 1000 | Cc1nc([C@@H](C)O)oc1C(=O)N1CCc2[nH]cnc2[C@H]1c1nc2c(F)cccc2o1 [Example 210, ((S)-4-(4-fluorobenzo[d]oxazol-2-yl)-6,7-dihydro-1H-imidazo[4,5-c]pyridin-5(4H)-yl)(2-((R)-1-hydroxyethyl)-4-methyloxazol-5-yl)methanone] |
| 1000 to 5000 | Cn1cnc(-c2nc(C(F)(F)F)c(C(=O)N3CCc4[nH]cnc4[C@@H]3c3nc4cc(F)ccc4o3)o2)c1 [Example 789, (R)-(4-(5-fluorobenzo[d]oxazol-2-yl)-6,7-dihydro-1H-imidazo[4,5-c]pyridin-5(4H)-yl)(2-(1-methyl-1H-imidazol-4-yl)-4-(trifluoromethyl)oxazol-5-yl)methanone] |
| ≤ 500 | COc1ccc(-c2nc(C(F)F)c(C(=O)N3CCc4[nH]cnc4[C@@H]3c3nc4cc(F)ccc4o3)o2)nc1 [Example 446, (R)-(4-(difluoromethyl)-2-(5-methoxypyridin-2-yl)oxazol-5-yl)(4-(5-fluorobenzo[d]oxazol-2-yl)-6,7-dihydro-1H-imidazo[4,5-c]pyridin-5(4H)-yl)methanone] |
| 1000 to 5000 | COc1ccc2oc([C@H]3c4nc[nH]c4CCN3C(=O)c3ccnn3C(F)F)nc2c1 [Example 552, (R)-(1-(difluoromethyl)-1H-pyrazol-5-yl)(4-(5-methoxybenzo[d]oxazol-2-yl)-6,7-dihydro-1H-imidazo[4,5-c]pyridin-5(4H)-yl)methanone] |
| ≤ 500 | C[C@H](O)c1nc(C(F)F)c(C(=O)N2CCc3[nH]cnc3[C@H]2c2nc3c(F)cccc3o2)o1 [Example 227, (4-(difluoromethyl)-2-((S)-1-hydroxyethyl)oxazol-5-yl)((S)-4-(4-fluorobenzo[d]oxazol-2-yl)-6,7-dihydro-1H-imidazo[4,5-c]pyridin-5(4H)-yl)methanone] |
| ≤ 500 | O=C(c1ocnc1C(F)F)N1CCc2[nH]cnc2[C@H]1c1nc2c(F)cc(F)cc2o1 [Example 301, (S)-(4-(4,6-difluorobenzo[d]oxazol-2-yl)-6,7-dihydro-1H-imidazo[4,5-c]pyridin-5(4H)-yl)(4-(difluoromethyl)oxazol-5-yl)methanone] |
| ≤ 500 | Cc1ccc2nc([C@H]3c4nc[nH]c4CCN3C(=O)c3ocnc3C(F)(F)F)oc2c1 [Example 58, (R)-(4-(6-methylbenzo[d]oxazol-2-yl)-6,7-dihydro-1H-imidazo[4,5-c]pyridin-5(4H)-yl)(4-(trifluoromethyl)oxazol-5-yl)methanone] |
| 500 to 1000 | O=C(c1oc(C2CC2)nc1C(F)F)N1CCc2[nH]cnc2[C@@H]1c1nc2cc(F)ccc2o1 [Example 54, (R)-(2-cyclopropyl-4-(difluoromethyl)oxazol-5-yl)(4-(5-fluorobenzo[d]oxazol-2-yl)-6,7-dihydro-1H-imidazo[4,5-c]pyridin-5(4H)-yl)methanone] |
| 500 to 1000 | CC(C)(O)c1nc(Cl)c(C(=O)N2CCc3[nH]cnc3[C@H]2c2nc3c(F)cccc3o2)o1 [Example 274, (S)-(4-chloro-2-(2-hydroxypropan-2-yl)oxazol-5-yl)(4-(4-fluorobenzo[d]oxazol-2-yl)-6,7-dihydro-1H-imidazo[4,5-c]pyridin-5(4H)-yl)methanone] |
| ≥ 5000 | Cn1nc(C(F)F)cc1C(=O)N1CCc2[nH]cnc2[C@@H]1c1nc2ccccc2o1 [Example 732, (R)-(4-(benzo[d]oxazol-2-yl)-6,7-dihydro-1H-imidazo[4,5-c]pyridin-5(4H)-yl)(3-(difluoromethyl)-1-methyl-1H-pyrazol-5-yl)methanone] |
| 1000 to 5000 | Cc1cccc2nc([C@H]3c4nc[nH]c4CCN3C(=O)c3nc(C(F)F)nn3C)oc12 [Example 614, (R)-(3-(difluoromethyl)-1-methyl-1H-1,2,4-triazol-5-yl)(4-(7-methylbenzo[d]oxazol-2-yl)-6,7-dihydro-1H-imidazo[4,5-c]pyridin-5(4H)-yl)methanone] |
| 500 to 1000 | COc1ccc2oc([C@@H]3c4nc[nH]c4CCN3C(=O)c3ccnn3C(F)F)nc2c1 [Example 551, (S)-(1-(difluoromethyl)-1H-pyrazol-5-yl)(4-(5-methoxybenzo[d]oxazol-2-yl)-6,7-dihydro-1H-imidazo[4,5-c]pyridin-5(4H)-yl)methanone] |
| 1000 to 5000 | O=C(c1oc(-c2ccccn2)nc1C(F)F)N1CCc2[nH]cnc2[C@@H]1c1nc2cc(F)ccc2o1 [Example 86, (R)-(4-(difluoromethyl)-2-(pyridin-2-yl)oxazol-5-yl)(4-(5-fluorobenzo[d]oxazol-2-yl)-6,7-dihydro-1H-imidazo[4,5-c]pyridin-5(4H)-yl)methanone] |
| 500 to 1000 | CC(F)(F)c1ncc(C(=O)N2CCc3[nH]cnc3[C@H]2c2nc3cc(F)ccc3o2)s1 [Example 35, (S)-(2-(1,1-difluoroethyl)thiazol-5-yl)(4-(5-fluorobenzo[d]oxazol-2-yl)-6,7-dihydro-1H-imidazo[4,5-c]pyridin-5(4H)-yl)methanone] |

same assay, conditions: A375 cells expressing R408W PAH; 24 hrs with compound, then 20 μM sepiapterin and 800 μM 13C9,15N-Phenylalanine for 4 hours; 13C-Tyrosine by LC-MS; average where tested multiple times

| SMILES | AC50 [nM] |
| --- | --- |
| CNc1ccc2c(C(=O)N3CCc4[nH]cnc4C3c3nc4cc(F)ccc4o3)cnn2c1 (centres unmarked) | ≥ 5000 |
| Cc1ccc2oc(C3c4nc[nH]c4CCN3C(=O)c3cnn4cc(CCN(C)C)ccc34)nc2c1 (centres unmarked) | 1000 to 5000 |
| COc1ccc(-c2nnc(C(=O)N3CCc4[nH]cnc4C3c3nc4cc(C(F)(F)F)ccc4o3)o2)nc1 (centres unmarked) | 1000 to 5000 |
| O=C(c1ccn(-c2ccccn2)n1)N1CCc2[nH]cnc2C1c1nc2cccc(F)c2o1 (centres unmarked) | ≥ 5000 |
| Cc1ccc2oc(C3c4nc[nH]c4CCN3C(=O)c3nnc(C(C)(C)O)o3)nc2c1 (centres unmarked) | 1000 to 5000 |

Further lines, results first:

| AC50 [nM] | SMILES |
| --- | --- |
| 1000 to 5000 | Cc1ccc2nc(C3c4nc[nH]c4CCN3C(=O)c3cnco3)oc2c1 (centres unmarked) |
| 1000 to 5000 | O=C([C@H]1CC1(F)F)N1CCc2[nH]cnc2[C@H]1c1nc2cc(F)ccc2o1 (single isomer, unassigned) |
| 1000 to 5000 | Cn1nc(C(F)F)nc1C(=O)N1CCc2[nH]cnc2C1c1nc2c(F)cc(F)cc2o1 (centres unmarked) |
| 1000 to 5000 | Cc1nc(C(C)(C)O)oc1C(=O)N1CCc2[nH]cnc2C1c1nc2ccc(F)cc2o1 (centres unmarked) |
